Data on 17 compounds can be found in patent US20240158357A1, “NOVEL QUINAZOLINONES THAT INHIBIT THE FORMATION OF TAU OLIGOMERS AND THEIR METHOD OF USE” (OLIGOMERIX INC., priority 2019, published 2024).

Data set [1] concerns the target T1, recombinant human tau 4R2N (Homo sapiens (Human), UniProt P10636). Description: AlphaLisa Assay (ALA), primary screen for inhibition of tau oligomer formation. As to conditions: tau target 300 nM, 4 hours room temperature, compound 0.098 uM-50 uM. Type of data set: biochemical. The text has this:
(§1) Bacterial recombinant human tau 4R2N (the largest isoform of tau in the central nervous system, 441 amino acids in length, Seq. ID 1) constructs with either 6X-His or StrepII N-terminal epitope tags were purified from bacterial lysate using denaturing conditions to prepare tau in its monomeric form.
ALA Assay: AlphaLisa Assay (ALA) was used as a primary screen for identifying compounds that inhibit tau oligomer formation. It is a bead based assay that only gives signal when the beads are in close proximity to each other. When the tau monomer (target) is incubated it forms higher order aggregates (dimer, trimer, tetramer, etc) so that when the donor and acceptor beads bind to the epitope tags of tau they are in close proximity and generate signal.
Tau target (equal mixture of each construct at 300 nM) was prepared in buffer (Tris-HCl pH 7.4) and was incubated in 96-well plates at room temperature for 4 hours with vehicle control (DMSO) and a dose range of a compound of the disclosure (0.098 uM-50 uM). AlphaLisa acceptor heads & donor beads with ligands to the epitope tags (Perkin Elmer) were diluted (final 20 ug/mL per bead) in bead buffer (25 mM HEPES pH 7.4, 100 mM NaCl, 0.1% Tween-20), added to the wells and incubated 1 hour at room temperature. The positive control (non-incubated target) & blank (no tau) were prepared and mixed with beads in bead buffer and the plate was read immediately using the EnVision plate reader (Perkin Elmer).
A general note: In Alpha technology, singlet oxygen from a donor bead excites a nearby acceptor bead.

Data set [2] has as its target T1, recombinant human tau 4R2N. Description: Confirmatory Assay (CONFA), SDS-PAGE quantification of tau monomer and oligomers. The format is biochemical. As to conditions: tau target 300 nM, 3 hours room temperature, compound 0.098 uM-50 uM. The method, then: as §1
CONFA Assay: Confirmatory Assay (CONFA) used as a secondary screen for confirming the mechanism of action of compounds identified as hits using the ALA assay. The assay is performed using a similar procedure as ALA except that it utilizes SDS-PAGE for visualization and quantification of tau monomer and aggregated species (dimer, trimer, tetramer, pentamer, etc.). Only a single construct of tau without epitope tags is necessary, but the assay can use the same target prepared for the ALA assay also.
For the CONFA assay, Tau target (300 nM) was prepared in buffer (Tris-HCl pH 7.4) and was incubated at room temperature for 3 hours with vehicle control (DMSO) and a dose range of a compound of the disclosure (0.098 uM-50 uM). Samples were mixed with an equal volume of 2×SDS sample buffer (4% SDS, 20% glycerol, 0.004% bromphenol blue, 125 mM Tris HCl, pH 7.0) to resolve tau monomer and disulfide-linked oligomers on 4-20% gradient polyacrylamide gels (Biorad) along with positive control (non-oligomerized tau target). The gels were stained with Oriole Fluorescent Gel Stain (BioRad) and imaged using the FluorChem R system (Protein Simple). AlphaView software (Protein Simple) was used for quantification of tau monomer and oligomers.

Data set [3] concerns insoluble tau aggregates in the brains of htau mice. Description: htau mouse study, insoluble tau in cortex (mAb DA31). Type of data set: in vivo. The method, then:
(§2) Four groups of htau mice (n=25 per group) were treated from 2.5 to 6.5 months of age with 0, 10, 40 and 100 mg/kg of compound TO-0582 milled into feed. The study was performed independently and blinded. The primary endpoint of the study was reduction of insoluble tau aggregates in the brains of the mice with statistical significance. […] Methods for biochemical analyses of tau used in this study have been previously described (Acker C M et al. Sensitive quantitative assays for tau and phospho-tau in transgenic mouse models. Neurobiol Aging. 2013. 34:338). The results in FIG. 1 show in vivo efficacy of the compound in reducing tau pathology. Levels of insoluble tau in the cortices of htau mice treated with compound TO-0582 (example 21) were determined using the pan-tau monoclonal antibody (mAb) DA31. These values were normalized to total tau in the lysates of the cortex of each mouse. Error bars indicate standard error of the mean. The P values of comparisons of the groups treated with 10, 40 or 100 mg/kg TO-0582 to the control group (white bar, 0 mg/kg) are 0.0503 (horizontal hatch bar, 10 mg/kg), 0.0154 (diagonal hatch bar, 40 mg/kg) and 0.0488 (vertical hatch bar, 100 mg/kg). * indicates P value <0.05.

For the next data set, the system named is htau mice. In words: htau mouse study, tolerability. Type of data set: in vivo. As to conditions: all doses (10, 40, 100 mg/kg in feed). The method, then: as §2

pIC50: −log10 of the molar value. Entries after “also recorded” stand apart in the source; their conditions may differ. Where a name gives a salt, the structure may show the parent alone.

T1 sequence (P10636 other isoform, or with tags, fused parts or gaps): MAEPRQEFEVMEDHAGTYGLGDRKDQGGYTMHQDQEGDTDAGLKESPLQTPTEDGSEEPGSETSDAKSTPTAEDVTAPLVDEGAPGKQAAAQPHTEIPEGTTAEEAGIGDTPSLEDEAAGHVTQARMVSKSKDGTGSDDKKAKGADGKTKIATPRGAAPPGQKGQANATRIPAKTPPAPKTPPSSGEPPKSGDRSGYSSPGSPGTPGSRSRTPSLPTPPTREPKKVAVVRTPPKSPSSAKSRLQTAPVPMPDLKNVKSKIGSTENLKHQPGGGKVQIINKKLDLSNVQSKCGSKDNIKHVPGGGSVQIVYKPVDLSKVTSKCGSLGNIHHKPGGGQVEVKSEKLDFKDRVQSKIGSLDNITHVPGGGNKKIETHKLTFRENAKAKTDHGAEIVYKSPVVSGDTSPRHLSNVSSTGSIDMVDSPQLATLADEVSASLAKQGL

For orientation: pIC50 means the IC50 on a negative log10 scale, so that one unit is a factor of ten. Turning to `CCc1ccc2cc(-n3c(-c4cccnc4)nc4ccccc4c3=O)ccc2c1` [Ex. 19, 3-(2-Ethylnaphthalen-6-yl)-2-(pyridine-3-yl)quinazolin-4(3H)-one], in data set [1], the pIC50 is 5.09. Consider `O=c1c2ccccc2nc(-c2cccnc2)n1-c1ccc(Cl)c(O)c1` [Ex. 2, 3-(4-Chloro-3-hydroxyphenyl)-2-(pyridin-3-yl)quinazolin-4(3H)-one hydrochloride], for which the figures for the pIC50 in data set [1] and in data set [2] were 5.24 and 4.50, respectively. As for `O=c1c2ccccc2nc(-c2cccnc2)n1CCCCO` [Ex. 3, 3-(4-Hydroxybutyl)-2-(pyridin-3-yl)quinazolin-4(3H)-one hydrochloride], the pIC50 in data set [1] was 5.00; in data set [2] it was 5.05.

As for `O=c1[nH]c(-c2cccnc2)nc2cnccc12` [Ex. 6, 2-(Pyridin-3-yl)pyrido[3,4-d]pyrimidin-4(3H)-one dihydrochloride], the pIC50 in data set [2] is 4.23. In the case of `CCc1ccc(-n2c(-c3cccnc3)nc3ccccc3c2=O)cc1F` [Ex. 17, 3-(3-Fluoro-4-ethylphenyl)-2-(pyridine-3-yl)quinazolin-4(3H)-one], the pIC50 in data set [1] was 4.62. On to `O=c1c2ccccc2nc(-c2cccnc2)n1-c1cccc(O)c1` [Ex. 21, 3-(3-Hydroxyphenyl)-2-(pyridin-3-yl)quinazolin-4(3H)-one hydrochloride], for which the pIC50 in data set [1] was 5.29. Further, the pIC50 in data set [2] is 5.25. The “reduction of insoluble tau, statistical significance” value in data set [3] (40 mg/kg and 100 mg/kg doses, male htau mice) is “achieved with statistical significance”. Moreover, the “reduction of insoluble tau aggregates in the brains” value in data set [3] (htau mice, 10, 40 and 100 mg/kg milled into feed, 2.5 to 6.5 months of age, listed as TO-0582, hydrochloride) is given as “reduced insoluble tau at all doses; also recorded: achieved with statistical significance”. Also, in the data set on htau mice, the “tolerability over the course of the study” value is “well tolerated” and the “toxic effects on weight, behavior or morbidity” value is on record as “did not cause toxic effects”.

Regarding `Cc1ccc(-n2c(-c3cccnc3)nc3ccsc3c2=O)cc1O` [Ex. 11, 3-(3-Hydroxy-4-methylphenyl)-2-(pyridin-3-yl)thieno[3,2-d]pyrimidin-4(3H)-one], the pIC50 in data set [1] is 4.77; in data set [2], 4.24. As to `O=c1[nH]c(-c2cccnc2)nc2ccsc12` [Ex. 15, 2-(pyridin-3-yl)thieno[3,2-d]pyrimidin-4(3H)-one], the pIC50 is 5.43 in data set [1] and 5.12 in data set [2]. On to `CN1CC(C(=O)Nc2ccc(-c3nc4ccsc4c(=O)[nH]3)cc2)C1` [Ex. 9, N-(4-(3,4-Dihydro-4-oxothieno[3,2-d]pyrimidin-2-yl)phenyl)-1-methyl azetidine-3-carboxamide hydrochloride], for which the pIC50 is 5.16 in data set [1] and 4.20 in data set [2].

Regarding `CCc1ccc(-n2c(-c3cccnc3)nc3ccccc3c2=O)cc1Br` [Ex. 18, 3-(3-Bromo-4-ethylphenyl)-2-(pyridine-3-yl)quinazolin-4(3H)-one], the pIC50 in data set [1] was 5.35. As for `COc1ccc(-n2c(-c3cccnc3)nc3ccsc3c2=O)cn1` [Ex. 14, 3-(6-Methoxypyridin-3-yl)-2-(pyridin-3-yl)thieno[3,2-d]pyrimidin-4(3H)-one dihydrochloride], the pIC50 was 5.20 in data set [1] and 4.65 in data set [2].

For `CCc1ccc(-n2c(-c3ccc(NC(C)=O)cc3)nc3ccsc3c2=O)cc1O` [Ex. 16, N-(4-(3-(4-ethyl-3-hydroxyphenyl)-4-oxo-3,4-dihydrothieno[3,2-d]pyrimidin-2-yl)phenyl)acetamide], the pIC50 in data set [1] is 5.34; in data set [2], 5.77. Take `Cc1ccc(-n2c(-c3cccnc3)nc3ccccc3c2=O)cc1O` [Ex. 20, 3-(4-Methyl-3-hydroxyphenyl)-2-(pyridin-3-yl)quinazolin-4(3H)-one hydrochloride]: the results for the pIC50 in data set [1] and in data set [2] were 5.72 and 5.38, respectively. With `O=c1c2sccc2nc(-c2cccnc2)n1-c1cccnc1` [Ex. 10, 2,3-Di(pyridin-3-yl)thieno[3,2-d]pyrimidin-4(3H)-one], in data set [1], the pIC50 is 4.58. `COc1ccc(-n2c(-c3ccc(NC(C)=O)cc3)nc3ccsc3c2=O)cn1` [Ex. 13, N-(4-(3,4-Dihydro-3-(6-methoxypyridin-3-yl)-4-oxothieno[3,2-d]pyrimidin-2-yl)phenyl)acetamide]: the pIC50 in data set [1] is 4.87. As for `O=c1c2ccccc2nc(-c2cccnc2)n1-c1cccc(OCc2ccccc2)c1` [Ex. 4, 3-(3-(Benzyloxy)phenyl)-2-(pyridin-3-yl)quinazolin-4(3H)-one hydrochloride], the pIC50 in data set [1] is 5.11; in data set [2] it was 5.50. For the compound `CN1CC(C(=O)Nc2ccc(-c3nc4ccccc4c(=O)n3-c3cccnc3)cc2)C1` [Ex. 7, N-(4-(3,4-Dihydro-4-oxo-3-(pyridin-3-yl)quinazolin-2-yl)phenyl)-1-methylazetidine-3-carboxamide dihydrochloride], the results for the pIC50 in data set [1] and in data set [2] were 5.02 and 4.92, respectively.
